Laboratory results published in patent US9302999B2, “Substituted triazoles as herbicides” (E. I. DU PONT DE NEMOURS AND COMPANY, priority 2012, dated 2016).

Experiments:
Assay type in all cases: in vivo
[1] = tested on: sedge, umbrella (small-flower umbrella sedge, Cyperus difformis); test: Test C flooded paddy test: sedge, umbrella; conditions: scale 0 to 100 (0 no effect, 100 complete control)
Description: (§1) Plant species in the flooded paddy test consisted of rice (Oryza sativa), sedge, umbrella (small-flower umbrella sedge, Cyperus difformis), ducksalad (Heteranthera limosa) and barnyardgrass (Echinochloa crus-galli) grown to the 2-leaf stage for testing. At time of treatment, test pots were flooded to 3 cm above the soil surface, treated by application of test compounds directly to the paddy water, and then maintained at that water depth for the duration of the test.
(§2) Treated plants and controls were maintained in a greenhouse for 13 to 15 days, after which time all species were compared to controls and visually evaluated. Plant response ratings, summarized in Table C, are based on a scale of 0 to 100 where 0 is no effect and 100 is complete control. A dash (-) response means no test result.

[2] = tested on: corn (Zea mays); test: Test A pre-/postemergence: corn; conditions: for Corn plant response rating: Postemergence; for Plant response rating, Corn: Preemergence
Outline: (§3)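 Pre: directed soil spray after planting in loam + sand. Post: same formulation (non-phytotoxic solvent + surfactant) on 1–2-leaf plants, 2–10 cm. Greenhouse ~10 d; visual injury 0–100 vs untreated.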

[3] = tested on: wheat (Triticum aestivum); test: Test A pre-/postemergence: wheat; conditions: for Wheat plant response rating: Postemergence; for Plant response rating, Wheat: Preemergence
Outline: as §3

[4] = tested on: foxtail, giant (giant foxtail, Setaria faberii); test: Test A pre-/postemergence: foxtail, giant; conditions: for Foxtail, Giant plant response rating: Postemergence; for Plant response rating, Foxtail, Giant: Preemergence
Outline: as §3

[5] = tested on: ducksalad (Heteranthera limosa); test: Test C flooded paddy test: ducksalad; conditions: scale 0 to 100 (0 no effect, 100 complete control)
Description: as §1, §2

[6] = tested on: barnyardgrass (Echinochloa crus-galli); test: Test A pre-/postemergence: barnyardgrass; conditions: for Barnyardgrass plant response rating: Postemergence; for Plant response rating, Barnyardgrass: Preemergence
Outline: as §3

[7] = tested on: barnyardgrass (Echinochloa crus-galli); test: Test C flooded paddy test: barnyardgrass; conditions: scale 0 to 100 (0 no effect, 100 complete control)
Description: as §1, §2

[8] = tested on: morningglory (Ipomoea spp.); test: Test A pre-/postemergence: morningglory; conditions: for Morningglory plant response rating: Postemergence; for Plant response rating, Morningglory: Preemergence
Outline: as §3

[9] = tested on: pigweed (Amaranthus retroflexus); test: Test A pre-/postemergence: pigweed; conditions: for Pigweed plant response rating: Postemergence; for Plant response rating, Pigweed: Preemergence
Outline: as §3

[10] = tested on: crabgrass, large (large crabgrass, Digitaria sanguinalis); test: Test A pre-/postemergence: crabgrass, large; conditions: for Crabgrass, Large plant response rating: Postemergence; for Plant response rating, Crabgrass, Large: Preemergence
Outline: as §3

[11] = tested on: velvetleaf (Abutilon theophrasti); test: Test A pre-/postemergence: velvetleaf; conditions: for Velvetleaf plant response rating: Postemergence; for Plant response rating, Velvetleaf: Preemergence
Outline: as §3

[12] = tested on: rice (Oryza sativa); test: Test C flooded paddy test: rice; conditions: scale 0 to 100 (0 no effect, 100 complete control)
Description: as §1, §2

[13] = Flood (flooded paddy test), 62 g ai/ha, visual rating after 13 to 15 days
[14] = Flood (flooded paddy test), 250 g ai/ha, visual rating after 13 to 15 days
[15] = 125 g ai/ha, 0 to 100 scale, 0 is no effect, 100 is complete control
[16] = 500 g ai/ha, visual rating on 0 to 100 scale (0 no effect, 100 complete control), approximately ten days
[17] = 125 g ai/ha, 0 to 100 scale (0 no effect, 100 complete control)
[18] = 500 g ai/ha, 0 to 100 scale, 0 is no effect, 100 is complete control
[19] = Flood (flooded paddy test), 125 g ai/ha, visual rating after 13 to 15 days

Compound: Cc1nn(-c2ccc(F)cc2)nc1Cn1ccc(C(F)(F)F)n1 [Compound 2]
- Plant response rating, Sedge, Umbrella [1, 13]: 0
- Plant response rating, Sedge, Umbrella [1, 14]: 70
- Corn plant response rating [2, 15]: 10
- Corn plant response rating [2, 16]: 10
- Plant response rating, Corn [2, 17]: 0
- Plant response rating, Corn [2, 18]: 0
- Wheat plant response rating [3, 15]: 0
- Wheat plant response rating [3, 16]: 10
- Plant response rating, Wheat [3, 17]: 0
- Plant response rating, Wheat [3, 18]: 0
- Foxtail, Giant plant response rating [4, 15]: 10
- Foxtail, Giant plant response rating [4, 16]: 20
- Plant response rating, Foxtail, Giant [4, 17]: 10
- Plant response rating, Foxtail, Giant [4, 18]: 50
- Plant response rating, Ducksalad [5, 13]: 0
- Plant response rating, Ducksalad [5, 14]: 0
- Barnyardgrass plant response rating [6, 15]: 0
- Barnyardgrass plant response rating [6, 16]: 10
- Plant response rating, Barnyardgrass [6, 17]: 0
- Plant response rating, Barnyardgrass [6, 18]: 10
- Plant response rating, Barnyardgrass [7, 13]: 0
- Plant response rating, Barnyardgrass [7, 14]: 0
- Morningglory plant response rating [8, 15]: 10
- Morningglory plant response rating [8, 16]: 20
- Plant response rating, Morningglory [8, 17]: 0
- Plant response rating, Morningglory [8, 18]: 0
- Pigweed plant response rating [9, 15]: 30
- Pigweed plant response rating [9, 16]: 90
- Plant response rating, Pigweed [9, 17]: 0
- Plant response rating, Pigweed [9, 18]: 60
- Crabgrass, Large plant response rating [10, 15]: 10
- Crabgrass, Large plant response rating [10, 16]: 20
- Plant response rating, Crabgrass, Large [10, 17]: 10
- Plant response rating, Crabgrass, Large [10, 18]: 90
- Velvetleaf plant response rating [11, 15]: 0
- Velvetleaf plant response rating [11, 16]: 0
- Plant response rating, Velvetleaf [11, 17]: 0
- Plant response rating, Velvetleaf [11, 18]: 0
- Plant response rating, Rice [12, 13]: 0
- Plant response rating, Rice [12, 14]: 0

Compound: Cc1nn(-c2ccc(C(F)(F)F)cn2)nc1Cn1ccc(C(F)(F)F)n1 [Compound 7]
- Plant response rating, Sedge, Umbrella [1, 13]: 40
- Plant response rating, Sedge, Umbrella [1, 19]: 50
- Plant response rating, Sedge, Umbrella [1, 14]: 85
- Plant response rating, Sedge, Umbrella ([1]; Flood, 31 g ai/ha): 30
- Corn plant response rating [2, 15]: 10
- Corn plant response rating [2, 16]: 50
- Plant response rating, Corn [2, 17]: 0
- Plant response rating, Corn [2, 18]: 30
- Wheat plant response rating [3, 15]: 0
- Wheat plant response rating [3, 16]: 20
- Plant response rating, Wheat [3, 17]: 0
- Plant response rating, Wheat [3, 18]: 0
- Foxtail, Giant plant response rating [4, 15]: 50
- Foxtail, Giant plant response rating [4, 16]: 90
- Plant response rating, Foxtail, Giant [4, 17]: 90
- Plant response rating, Foxtail, Giant [4, 18]: 100
- Plant response rating, Ducksalad [5, 13]: 0
- Plant response rating, Ducksalad [5, 19]: 30
- Plant response rating, Ducksalad [5, 14]: 70
- Plant response rating, Ducksalad ([5]; Flood, 31 g ai/ha): 0
- Barnyardgrass plant response rating [6, 15]: 30
- Barnyardgrass plant response rating [6, 16]: 90
- Plant response rating, Barnyardgrass [6, 17]: 40
- Plant response rating, Barnyardgrass [6, 18]: 100
- Plant response rating, Barnyardgrass [7, 13]: 0
- Plant response rating, Barnyardgrass [7, 19]: 0
- Plant response rating, Barnyardgrass [7, 14]: 20
- Plant response rating, Barnyardgrass ([7]; Flood, 31 g ai/ha): 0
- Morningglory plant response rating [8, 15]: 90
- Morningglory plant response rating [8, 16]: 90
- Plant response rating, Morningglory [8, 17]: 30
- Plant response rating, Morningglory [8, 18]: 80
- Pigweed plant response rating [9, 15]: 100
- Pigweed plant response rating [9, 16]: 100
- Plant response rating, Pigweed [9, 17]: 100
- Plant response rating, Pigweed [9, 18]: 100
- Crabgrass, Large plant response rating [10, 15]: 70
- Crabgrass, Large plant response rating [10, 16]: 90
- Plant response rating, Crabgrass, Large [10, 17]: 100
- Plant response rating, Crabgrass, Large [10, 18]: 100
- Velvetleaf plant response rating [11, 15]: 30
- Velvetleaf plant response rating [11, 16]: 70
- Plant response rating, Velvetleaf [11, 17]: 30
- Plant response rating, Velvetleaf [11, 18]: 60
- Plant response rating, Rice [12, 13]: 0
- Plant response rating, Rice [12, 19]: 0
- Plant response rating, Rice [12, 14]: 15
- Plant response rating, Rice ([12]; Flood, 31 g ai/ha): 0

Compound: Cc1nn(-c2ccc(C(F)(F)F)cc2)nc1Cn1ccc(C(F)(F)C(F)(F)F)n1 [Compound 12]
- Plant response rating, Sedge, Umbrella [1, 13]: 50
- Plant response rating, Sedge, Umbrella [1, 14]: 80
- Corn plant response rating [2, 15]: 20
- Corn plant response rating [2, 16]: 30
- Plant response rating, Corn [2, 17]: 0
- Plant response rating, Corn [2, 18]: 10
- Wheat plant response rating [3, 15]: 10
- Wheat plant response rating [3, 16]: 30
- Plant response rating, Wheat [3, 17]: 0
- Plant response rating, Wheat [3, 18]: 0
- Foxtail, Giant plant response rating [4, 15]: 50
- Foxtail, Giant plant response rating [4, 16]: 70
- Plant response rating, Foxtail, Giant [4, 17]: 80
- Plant response rating, Foxtail, Giant [4, 18]: 100
- Plant response rating, Ducksalad [5, 13]: 60
- Plant response rating, Ducksalad [5, 14]: 70
- Barnyardgrass plant response rating [6, 15]: 30
- Barnyardgrass plant response rating [6, 16]: 80
- Plant response rating, Barnyardgrass [6, 17]: 30
- Plant response rating, Barnyardgrass [6, 18]: 80
- Plant response rating, Barnyardgrass [7, 13]: 40
- Plant response rating, Barnyardgrass [7, 14]: 60
- Morningglory plant response rating [8, 15]: 70
- Morningglory plant response rating [8, 16]: 100
- Plant response rating, Morningglory [8, 17]: 10
- Plant response rating, Morningglory [8, 18]: 40
- Pigweed plant response rating [9, 15]: 100
- Pigweed plant response rating [9, 16]: 100
- Plant response rating, Pigweed [9, 17]: 80
- Plant response rating, Pigweed [9, 18]: 100
- Crabgrass, Large plant response rating [10, 15]: 50
- Crabgrass, Large plant response rating [10, 16]: 90
- Plant response rating, Crabgrass, Large [10, 17]: 90
- Plant response rating, Crabgrass, Large [10, 18]: 100
- Velvetleaf plant response rating [11, 15]: 70
- Velvetleaf plant response rating [11, 16]: 100
- Plant response rating, Velvetleaf [11, 17]: 60
- Plant response rating, Velvetleaf [11, 18]: 70
- Plant response rating, Rice [12, 13]: 0
- Plant response rating, Rice [12, 14]: 25

Compound: Cc1nn(-c2ccc(C(F)(F)F)cn2)nc1Cn1nc(C(F)(F)F)cc1C [Compound 21]
- Plant response rating, Sedge, Umbrella [1, 13]: 0
- Plant response rating, Sedge, Umbrella [1, 19]: 0
- Plant response rating, Sedge, Umbrella [1, 14]: 0
- Plant response rating, Sedge, Umbrella ([1]; Flood, 31 g ai/ha): 0
- Corn plant response rating [2, 15]: 0
- Corn plant response rating [2, 16]: 10
- Plant response rating, Corn [2, 17]: 0
- Plant response rating, Corn [2, 18]: 0
- Wheat plant response rating [3, 15]: 0
- Wheat plant response rating [3, 16]: 0
- Plant response rating, Wheat [3, 17]: 0
- Plant response rating, Wheat [3, 18]: 0
- Foxtail, Giant plant response rating [4, 15]: 0
- Foxtail, Giant plant response rating [4, 16]: 10
- Plant response rating, Foxtail, Giant [4, 17]: 0
- Plant response rating, Foxtail, Giant [4, 18]: 30
- Plant response rating, Ducksalad [5, 13]: 0
- Plant response rating, Ducksalad [5, 19]: 0
- Plant response rating, Ducksalad [5, 14]: 0
- Plant response rating, Ducksalad ([5]; Flood, 31 g ai/ha): 0
- Barnyardgrass plant response rating [6, 15]: 0
- Barnyardgrass plant response rating [6, 16]: 10
- Plant response rating, Barnyardgrass [6, 17]: 0
- Plant response rating, Barnyardgrass [6, 18]: 10
- Plant response rating, Barnyardgrass [7, 13]: 0
- Plant response rating, Barnyardgrass [7, 19]: 0
- Plant response rating, Barnyardgrass [7, 14]: 0
- Plant response rating, Barnyardgrass ([7]; Flood, 31 g ai/ha): 0
- Morningglory plant response rating [8, 15]: 20
- Morningglory plant response rating [8, 16]: 40
- Plant response rating, Morningglory [8, 17]: 0
- Plant response rating, Morningglory [8, 18]: 0
- Pigweed plant response rating [9, 15]: 60
- Pigweed plant response rating [9, 16]: 80
- Plant response rating, Pigweed [9, 17]: 0
- Plant response rating, Pigweed [9, 18]: 50
- Crabgrass, Large plant response rating [10, 15]: 20
- Crabgrass, Large plant response rating [10, 16]: 40
- Plant response rating, Crabgrass, Large [10, 17]: 0
- Plant response rating, Crabgrass, Large [10, 18]: 60
- Velvetleaf plant response rating [11, 15]: 10
- Velvetleaf plant response rating [11, 16]: 20
- Plant response rating, Velvetleaf [11, 17]: 0
- Plant response rating, Velvetleaf [11, 18]: 0
- Plant response rating, Rice [12, 13]: 0
- Plant response rating, Rice [12, 19]: 0
- Plant response rating, Rice [12, 14]: 0
- Plant response rating, Rice ([12]; Flood, 31 g ai/ha): 0
